Data from US6150359A, “Naphthyridinones for inhibiting protein tyrosine kinase and cell cycle kinase mediated cellular proliferation” (Warner-Lambert Company, priority 2000, dated 2000).

Columns and labels:
Format in all cases: biochemical
[1] = target: Protein kinase C (PKC); assay: Protein kinase C (PKC) assay; conditions: rat brain preparation
Procedure: (§1) Other Kinases. c-Src kinase is purified from baculovirus infected insect cell lysates using an antipeptide monoclonal antibody directed against the N-terminal 2-17 amino acids as described previously by Fry, et al., Anticancer Drug Design, 1994;9:331-351. Protein kinase C (PKC.) is obtained as a rat brain preparation from Promega.
Other Kinases. An assay using the intracellular kinase domains of insulin receptor (INSr) is performed as described for the EGF receptor except that 10 mM manganese chloride is included in the reaction. The PKC assay is performed as previously described by Martiny-Baron, et al., J. Biol. Chem., 1993;268:9194-9197.

[2] = target: T1, FGFr (human FGF-1 (flg) receptor tyrosine kinase) (Homo sapiens, UniProt P11362); assay: FGFr tyrosine kinase assay, 32P incorporation into glutamate-tyrosine copolymer; conditions: 50 μM ATP; read-out: FGFr IC50
T1 construct: PCR primers are designed to amplify a fragment of DNA that codes for the intracellular tyrosine kinase domain; made in house; host or cells: Sf9 insect cells (baculovirus), cell lysate
T1 sequence (P11362 478-767 limits assumed): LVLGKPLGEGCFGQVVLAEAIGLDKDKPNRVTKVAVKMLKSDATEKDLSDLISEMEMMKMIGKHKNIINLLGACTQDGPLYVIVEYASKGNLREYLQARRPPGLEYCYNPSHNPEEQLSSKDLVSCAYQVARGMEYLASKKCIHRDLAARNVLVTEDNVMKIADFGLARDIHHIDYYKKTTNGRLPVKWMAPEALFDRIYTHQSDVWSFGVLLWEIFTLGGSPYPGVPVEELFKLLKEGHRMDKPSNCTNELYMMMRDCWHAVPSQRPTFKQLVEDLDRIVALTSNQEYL
Procedure: (§2) Platelet Derived Growth Factor Receptor (PDGFr) and Fibroblast Growth Factor Receptor (FGFr). Full length cDNAs for the mouse PDGF-β and human FGF-1 (flg) receptor tyrosine kinases were obtained from J. Escobedo and are prepared as described in J. Biol. Chem., 1991;262:1482-1487. PCR primers are designed to amplify a fragment of DNA that codes for the intracellular tyrosine kinase domain. The fragment is melded into a baculovirus vector, cotransfected with AcMNPV DNA, and the recombinant virus isolated. SF9 insect cells are infected with the virus to overexpress the protein, and the cell lysate is used for the assay.
(§3) PDGFr and FGFr. […] Briefly, to each well is added 82.5 μL of incubation buffer containing 25 mM Hepes (pH 7.0), 150 mM NaCl, 0.1% Triton X-100, 0.2 mM PMSF, 0.2 mM sodium vanadate, 10 mM manganese chloride, and 750 μg/mL of poly (4:1) glutamate-tyrosine followed by 2.5 μL of inhibitor and 5 μL of enzyme lysate (7.5 μg/μL FGFR-TK or 6.0 μg/μL PDGFR-TK) to initiate the reaction. Following a 10 minute incubation at 25° C., 10 μL of [γ^32 P]ATP (0.4 μCi plus 50 μM ATP) is added to each well, and samples are incubated for an additional 10 minutes at 25° C. The reaction is terminated by the addition of 100 μL of 30% trichloroacetic acid (TCA) containing 20 mM sodium pyrophosphate and precipitation of material onto glass fiber filter mats (Wallac). […] Nonspecific activity is defined as radioactivity retained on the filters following incubation of samples with buffer alone; (no enzyme). Specific enzymatic activity is defined as total activity (enzyme plus buffer) minus nonspecific activity.

[3] = target: T2, c-Src (Homo sapiens, UniProt P12931); assay: c-Src kinase assay, 32P incorporation into polyglutamate-tyrosine; conditions: 5 μM ATP
T2 construct: made in house; host or cells: baculovirus infected insect cells
T2 sequence (P12931 whole entry, species assumed): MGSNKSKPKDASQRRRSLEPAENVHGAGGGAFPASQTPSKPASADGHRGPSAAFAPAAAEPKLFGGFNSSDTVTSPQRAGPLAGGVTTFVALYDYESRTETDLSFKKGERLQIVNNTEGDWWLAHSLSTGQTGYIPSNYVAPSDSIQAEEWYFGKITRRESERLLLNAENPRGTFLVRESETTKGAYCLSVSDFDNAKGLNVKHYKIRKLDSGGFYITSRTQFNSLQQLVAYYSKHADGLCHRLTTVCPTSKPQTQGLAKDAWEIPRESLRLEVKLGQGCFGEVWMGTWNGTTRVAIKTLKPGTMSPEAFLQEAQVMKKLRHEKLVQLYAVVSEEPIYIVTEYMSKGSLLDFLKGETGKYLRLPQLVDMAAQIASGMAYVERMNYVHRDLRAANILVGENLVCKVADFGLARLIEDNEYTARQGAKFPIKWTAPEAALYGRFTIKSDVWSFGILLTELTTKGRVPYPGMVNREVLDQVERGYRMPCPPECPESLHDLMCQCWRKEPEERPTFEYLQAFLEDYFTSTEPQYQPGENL
Procedure: as §1
c-Src. The antibody, covalently linked to 0.65-μm latex beads, is added to a suspension of insect cell lysis buffer comprised of 150 mM NaCl, 50 mM Tris pH 7.5, 1 mM DTT, 1% NP-40, 2 mM EGTA, 1 mM sodium vanadate, 1 mM PMSF, 1 μg/mL each of leupeptin, pepstatin, and aprotinin. Insect cell lysate containing the c-Src protein is incubated with these beads for 3 to 4 hours at 4° C. with rotation. At the end of the lysate incubation, the beads are rinsed three times in lysis buffer, resuspended in lysis buffer containing 10% glycerol, and frozen. These latex beads are thawed, rinsed three times in assay buffer which is comprised of 40 mM tris pH 7.5, 5 mM magnesium chloride, and suspended in the same buffer. In a Millipore 96-well plate with a 0.65 μm polyvinylidine membrane bottom are added the reaction components: 10-μL c-Src beads, 10 μL of 2.5 mg/mL polyglutamate-tyrosine substrate, 5 μM ATP containing 0.2 μCi labeled ^32 P-ATP, 5 μL DMSO containing inhibitors or as a solvent control, and buffer to make the final volume 125 μL. The reaction is started at room temperature by addition of the ATP and quenched 10 minutes later by the addition of 125 μL of 30% TCA, 0.1 M sodium pyrophosphate for 15 minutes on ice. The plate is then filtered and the wells washed with two 250-μL aliquots of 15% TCA, 0.1 M pyrophosphate. The filters are punched, counted in a liquid scintillation counter, and the data examined for inhibitory activity in comparison to a known inhibitor such as erbstatin. The method is described more fully in J. Med. Chem., 1994;37:598-609.

[4] = target: T3, PDGFr (mouse PDGF-β receptor tyrosine kinase) (Mus musculus, UniProt P05622); assay: PDGFr tyrosine kinase assay, 32P incorporation into glutamate-tyrosine copolymer; conditions: 50 μM ATP
T3 construct: PCR primers are designed to amplify a fragment of DNA that codes for the intracellular tyrosine kinase domain; made in house; host or cells: Sf9 insect cells (baculovirus), cell lysate
T3 sequence (P05622 599-961 limits assumed): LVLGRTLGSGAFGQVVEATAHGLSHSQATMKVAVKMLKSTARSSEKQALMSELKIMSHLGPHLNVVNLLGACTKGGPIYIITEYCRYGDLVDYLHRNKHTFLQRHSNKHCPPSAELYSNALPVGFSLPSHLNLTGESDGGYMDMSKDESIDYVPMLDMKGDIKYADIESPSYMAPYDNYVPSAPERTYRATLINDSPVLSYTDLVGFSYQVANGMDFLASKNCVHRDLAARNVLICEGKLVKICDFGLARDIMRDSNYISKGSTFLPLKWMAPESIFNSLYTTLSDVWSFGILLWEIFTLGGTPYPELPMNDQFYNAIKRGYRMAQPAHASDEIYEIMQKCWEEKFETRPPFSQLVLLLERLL
Procedure: as §2, §3

[5] = target: T4, EGFr (Human EGF receptor tyrosine kinase) (Homo sapiens, UniProt P00533); assay: EGFr tyrosine kinase assay; conditions: 10 μM ATP
T4 construct: Human EGF receptor tyrosine kinase is isolated from A431 human epidermoid carcinoma cells; endogenous in cells; host or cells: A431 human epidermoid carcinoma cells (detergent lysate, Q Sepharose fractions)
T4 sequence (P00533 25-1210): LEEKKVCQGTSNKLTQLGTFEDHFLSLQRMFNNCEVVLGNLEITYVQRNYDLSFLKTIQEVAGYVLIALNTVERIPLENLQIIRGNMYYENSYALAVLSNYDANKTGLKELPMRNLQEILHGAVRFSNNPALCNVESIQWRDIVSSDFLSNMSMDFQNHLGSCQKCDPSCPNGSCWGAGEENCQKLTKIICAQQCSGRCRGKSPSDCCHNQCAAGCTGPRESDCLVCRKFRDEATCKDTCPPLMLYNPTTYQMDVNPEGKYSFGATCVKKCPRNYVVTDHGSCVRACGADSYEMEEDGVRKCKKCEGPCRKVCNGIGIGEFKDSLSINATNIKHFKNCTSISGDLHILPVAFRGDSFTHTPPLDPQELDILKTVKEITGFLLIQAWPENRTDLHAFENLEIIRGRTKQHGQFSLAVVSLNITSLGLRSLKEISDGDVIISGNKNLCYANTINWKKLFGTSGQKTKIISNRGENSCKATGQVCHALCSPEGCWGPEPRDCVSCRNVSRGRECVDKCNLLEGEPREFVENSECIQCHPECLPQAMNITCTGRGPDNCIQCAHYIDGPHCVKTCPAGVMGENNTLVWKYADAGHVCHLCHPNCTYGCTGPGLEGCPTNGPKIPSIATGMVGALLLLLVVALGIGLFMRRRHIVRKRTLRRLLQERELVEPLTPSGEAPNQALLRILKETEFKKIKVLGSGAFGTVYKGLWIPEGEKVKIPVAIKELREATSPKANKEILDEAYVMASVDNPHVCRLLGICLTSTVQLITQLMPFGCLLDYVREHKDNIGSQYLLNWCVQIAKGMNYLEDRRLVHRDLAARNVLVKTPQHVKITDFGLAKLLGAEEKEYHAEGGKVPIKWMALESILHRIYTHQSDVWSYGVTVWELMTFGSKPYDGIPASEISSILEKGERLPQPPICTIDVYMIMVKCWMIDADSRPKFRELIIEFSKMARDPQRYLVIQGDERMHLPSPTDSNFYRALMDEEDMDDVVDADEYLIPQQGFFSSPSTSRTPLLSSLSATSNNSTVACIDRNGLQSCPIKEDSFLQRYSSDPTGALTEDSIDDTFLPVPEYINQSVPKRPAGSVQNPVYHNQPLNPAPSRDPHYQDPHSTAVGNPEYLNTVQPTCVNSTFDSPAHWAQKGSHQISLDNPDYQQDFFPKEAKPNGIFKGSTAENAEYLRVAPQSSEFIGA
Procedure: Epidermal Growth Factor Receptor (EGFr). Human EGF receptor tyrosine kinase is isolated from A431 human epidermoid carcinoma cells by the following method. Cells were grown in roller bottles in 50% Dulbecco's Modified Eagle medium and 50% HAM F-12 nutrient media (Gibco) containing 10% fetal calf serum. Approximately 10^9 cells are lysed in two volumes of buffer containing 20 mM 2-(4N-[2-[…]]piperazin-1-yl)ethanesulfonic acid (Hepes), pH 7.4, 5 mM ethylene glycol bis(2-aminoethyl ether) N,N,N',N'-tetraacetic acid (EGTA), 1% Triton X-100, 10% glycerol, 0.1 mM sodium orthovanadate, 5 mM sodium fluoride, 4 mM pyrophosphate, 4 mM benzamide, 1 mM dithiothreitol (DTT), 80 μg/mL aprotinin, 40 μg/mL leupeptin, and 1 mM phenylmethylsulfonyl fluoride (PMSF). After centrifugation at 25,000×g for 10 minutes, the supernatant is applied to a fast Q sepharose column (Pharmacia) and eluted with a linear gradient from 0.1 M NaCl to 0.4 M NaCl in 50 mM Hepes, 10% glycerol, pH 7.4. Enzyme active fractions are pooled, divided into aliquots, and stored at -100° C.
EGFr. Enzyme assays for IC50 determinations are performed in 96-well filter plates (Millipore MADVN6550). The total volume is 0.1 mL containing 20 mM Hepes, pH 7.4, 50 μM sodium vanadate, 40 mM magnesium chloride, 10 μM ATP containing 0.5 μCi of [^32 P]ATP, 20 μg of polyglutamic acid/tyrosine (Sigma Chemical Co., St. Louis, Mo.), 10 ng of EGF receptor tyrosine kinase and appropriate dilutions of inhibitor. All components except the ATP are added to the well, and the plate is incubated with shaking for 10 minutes at 25° C. The reaction is started by adding [^32 P]ATP, and the plate is incubated at 25° C. for 10 minutes. The reaction is terminated by addition of 0.1 mL of 20% trichloroacetic acid (TCA). The plate is kept at 4° C. for at least 15 minutes to allow the substrate to precipitate. The wells are then washed five times with 0.2 mL of 10% TCA, and ^32 P incorporation is determined with a Wallac beta plate counter.

Row | IC50 [2] [nM] | IC50 [3] [nM] | IC50 [4] [nM] | SMILES | IC50 [1] [nM] | IC50 [5] [nM]
1 | 340 | 420 | 3600 | CNc1cc2c(cn1)cc(-c1c(Cl)cccc1Cl)c(=O)n2C [Example B, 3-(2,6-dichlorophenyl)-1-methyl-7-methylamino-1H-[1,6]naphthyridin-2-one] | – | –
2 | 3700 | 13000 | 16000 | CCN(CC)CCNc1cc2c(cn1)cc(-c1c(Cl)cccc1Cl)c(=O)n2C [Example D, 3-(2,6-dichlorophenyl)-7-[2-(diethylamino)ethylamino]-1-methyl-1H-[1,6]naphthyridin-2-one] | – | –
3 | 220 | 300 | 4000 | CCN(CC)CCCNc1cc2c(cn1)cc(-c1c(Cl)cccc1Cl)c(=O)n2C [Example E, 3-(2,6-dichlorophenyl)-7-[3-(diethylamino)propylamino]-1-methyl-1H-[1,6]naphthyridin-2-one] | – | –
4 | 70 | 20 | 690 | CCN(CC)CCCCCNc1cc2c(cn1)cc(-c1c(Cl)cccc1Cl)c(=O)n2C [Example G, 3-(2,6-dichlorophenyl)-7-[5-(diethylamino)pentylamino]-1-methyl-1H-[1,6]naphthyridin-2-one] | – | –
5 | – | 40 | 950 | CN1CCN(CCCCNc2cc3c(cn2)cc(-c2c(Cl)cccc2Cl)c(=O)n3C)CC1 [Example I, 3-(2,6-dichlorophenyl)-1-methyl-7-[4-(4-methylpiperazin-1-yl)butylamino]-1H-[1,6]naphthyridin-2-one] | – | –
6 | – | 30 | 850 | CN1CCN(CCCCCNc2cc3c(cn2)cc(-c2c(Cl)cccc2Cl)c(=O)n3C)CC1 [Example J, 3-(2,6-dichlorophenyl)-1-methyl-7-[5-(4-methylpiperazin-1-yl)pentylamino]-1H-[1,6]naphthyridin-2-one] | – | –
7 | – | 540 | 1700 | Cn1c(=O)c(-c2c(Cl)cccc2Cl)cc2cnc(NCCCn3ccnc3)cc21 [Example L, 3-(2,6-dichlorophenyl)-7-[3-(imidazol-1-yl)propylamino]-1-methyl-1H-[1,6]naphthyridin-2-one] | – | –
8 | 3300 | 550 | 9600 | Cn1c(=O)c(-c2c(Cl)cccc2Cl)cc2cnc(Nc3ccncc3)cc21 [Example N, 3-(2,6-dichlorophenyl)-1-methyl-7-(4-pyridylamino)-1H-[1,6]naphthyridin-2-one] | – | –
9 | 1200 | 1700 | 1700 | COc1ccc(Nc2cc3c(cn2)cc(-c2c(Cl)cccc2Cl)c(=O)n3C)cc1 [Example O, 3-(2,6-dichlorophenyl)-7-[(4-methoxyphenyl)amino]-1-methyl-1H-[1,6]naphthyridin-2-one] | – | –
10 | – | 50 | 3100 | Cn1c(=O)c(-c2c(Cl)cccc2Cl)cc2cnc(NCCCCN3CCOCC3)cc21 [Example Q, 3-(2,6-dichlorophenyl)-1-methyl-7-[4-(4-morpholino)butylamino]-1H-[1,6]naphthyridin-2-one] | – | –
11 | 180 | 30 | 370 | CCN(CC)CCCOc1ccc(Nc2cc3c(cn2)cc(-c2c(Cl)cccc2Cl)c(=O)n3C)cc1 [Example R, 3-(2,6-dichlorophenyl)-7-[(4-(3-(diethylamino)propoxy)phenyl)amino]-1-methyl-1H-[1,6]naphthyridin-2-one] | – | –
12 | – | 30 | 370 | CN1CCN(CCCOc2ccc(Nc3cc4c(cn3)cc(-c3c(Cl)cccc3Cl)c(=O)n4C)cc2)CC1 [Example T, 3-(2,6-dichlorophenyl)-1-methyl-7-[(4-(3-(4-methylpiperazin-1-yl)propoxy)phenyl)amino]-1H-[1,6]naphthyridin-2-one] | – | –
13 | – | 20 | 260 | CN1CCN(c2ccc(Nc3cc4c(cn3)cc(-c3c(Cl)cccc3Cl)c(=O)n4C)cc2)CC1 [Example U, 3-(2,6-dichlorophenyl)-1-methyl-7-[(4-(4-methylpiperazin-1-yl)phenyl)amino]-1H-[1,6]naphthyridin-2-one] | – | –

Row | SMILES | IC50 [2] [nM] | IC50 [3] [nM] | IC50 [4] [nM] | IC50 [1] [nM] | IC50 [5] [nM]
14 | Cn1c(=O)c(-c2c(Cl)cccc2Cl)cc2cnc(N)cc21 [Example A, 7-amino-3-(2,6-dichlorophenyl)-1-methyl-1H-[1,6]naphthyridin-2-one] | 280 | 350 | 2500 | 50000 | –
15 | Cn1c(=O)c(-c2c(Cl)cccc2Cl)cc2cnc(NCCCN3CCOCC3)cc21 [Example K, 3-(2,6-dichlorophenyl)-1-methyl-7-[3-(4-morpholino)propylamino]-1H-[1,6]naphthyridin-2-one] | – | 360 | 4700 | > 50000 | < 50000
16 | Cn1c(=O)c(-c2c(Cl)cccc2Cl)cc2cnc(Nc3ccccc3)cc21 [Example M, 3-(2,6-dichlorophenyl)-1-methyl-7-(phenylamino)-1H-[1,6]naphthyridin-2-one] | 1300 | 790 | 1000 | > 50000 | < 50000
